From US10457679B2, “Imidazo[4,5-c]quinolin-2-one compounds and their use in treating cancer” (AstraZeneca AB, priority 2015, dated 2019)
pIC50: −log10 of the molar value.

target: T1, mTOR (Homo sapiens, UniProt P42345); experiment: Assay d) mTOR cellular potency (phospho-AKT Ser473 in MDA-MB-468 cells); type: cell-based; settings: pAKT Ser473, Protocol A (§); read-out: Assay d) mTOR Cell IC50
T1 construct: endogenous in cells; host or cells: MDA-MB-468 cells (ATCC HTB 132)
Method: Assay d): mTOR Cellular Potency
This assay was used to measure mTOR inhibition in cells. The aim of the phospho-AKT cell based mechanism of action assay using the Acumen Explorer is to identify inhibitors of either PI3Kα or mTOR-Rictor (Rapamycin insensitive companion of mTOR). This is measured by any decrease in the phosphorylation of the Akt protein at Ser473 (AKT lies downstream of PI3Kα in the signal transduction pathway) in the MDA-MB-468 cells following treatment with compound. Method Details:
MDA-MB-468 cells (human breast adenocarcinoma #ATCC HTB 132) were seeded at 1500 cells/well in 40 μl of DMEM containing 10% FBS and 1% glutamine into Greiner 384 well black flat-bottomed plates. Cell plates were incubated for 18 h in a 37° C. incubator before dosing with compounds of Formula (I) in 100% DMSO using acoustic dispensing. Compounds were dosed in a 12 point concentration range into a randomised plate map. Control wells were generated either by dosing of 100% DMSO (max signal) or addition of a reference compound (a PI3K-β inhibitor) that completely eliminated the pAKT signal (min control). Compounds were then tested by one of two assay protocols A or B:
Plates were incubated at 37° C. for 2 h; cells were then fixed by the addition of 10 μl of a 3.7% formaldehyde solution. After 30 minutes the plates were washed with PBS using a Tecan PW384 plate washer. Wells were blocked and cells permeabilised with the addition of 40 μl of PBS containing 0.5% Tween20 and 1% Marvel™ (dried milk powder) and incubated for 60 minutes at r.t. The plates were washed with PBS containing 0.5% (v/v) Tween20 and 20 μl rabbit anti-phospho AKT Ser473 (Cell Signalling Technologies, #3787) in same PBS-Tween+1% Marvel™ was added and incubated overnight at 4° C.
Plates were washed 3 times with PBS+0.05% Tween 20 using a Tecan PW384. 20 μl of secondary antibody Alexa Fluor 488 anti-Rabbit (Molecular Probes, #A11008) diluted in PBS+0.05% Tween20 containing 1% Marvel™ was added to each well and incubated for 1 h at r.t. Plates were washed three times as before then 20 μl PBS added to each well and plates sealed with a black plate sealer.
The plates were read on an Acumen plate reader as soon as possible, measuring green fluorescence after excitation with 488 nm laser. Using this system IC50 values were generated and quality of plates was determined by control wells. Reference compounds were run each time to monitor assay performance.
The cell plates were then incubated for 2 h at 37° C. before being fixed by the addition of 20 μl 3.7% formaldehyde in PBS/A (1.2% final concentration), followed by a 30 minute room temperature incubation, and then a 2× wash with 150 μl PBS/A using a BioTek ELx406 platewasher. Cells were permeabilised and blocked with 20 μl of assay buffer (0.1% Triton X-100 in PBS/A+1% BSA) for 1 h at room temperature, and then washed 1× with 50 μl PBS/A. Primary phospho-AKT (Ser473) D9E XP® rabbit monoclonal antibody (#4060, Cell Signaling Technology) was diluted 1:200 in assay buffer, 20 μl added per well, and plates were incubated at 4° C. overnight. Cell plates were washed 3× with 200 μl PBS/T, then 20 μl 1:750 dilution in assay buffer of Alexa Fluor® 488 goat anti-rabbit IgG secondary antibody (#A11008, Molecular Probes, Life Technologies), with a 1:5000 dilution of Hoechst 33342, was added per well. Following a 1 h incubation at room temperature, plates were washed 3× with 200 μl PBS/T, and 40 μl PBS w/o Ca, Mg and Na Bicarb (Gibco #14190-094) was added per well.
Stained cell plates were covered with black seals, and then read on the Cell Insight imaging platform (Thermo Scientific), with a 10× objective. The primary channel (Hoechst blue fluorescence 405 nM, BGRFR_386_23) was used to Autofocus and to count number of events (this provided information about cytotoxicity of the compounds tested). The secondary channel (Green 488 nM, BGRFR_485_20) measured pAKT staining. […]

`CC(C)n1c(=O)n(C)c2cnc3cc(F)c(-c4ccc(OCCCN5CCCC5)nc4)cc3c21` [Example 3, 7-Fluoro-1-isopropyl-3-methyl-8-[6-(3-pyrrolidin-1-ylpropoxy)-3-pyridyl]imidazo[4,5-c]quinolin-2-one] and `CC(C)n1c(=O)n(C)c2cnc3cc(F)c(-c4ccc(OCCCN5CCC5)nc4)cc3c21` [Example 4, 8-[6-[3-(azetidin-1-yl)propoxy]-3-pyridyl]-7-fluoro-1-isopropyl-3-methyl-imidazo[4,5-c]quinolin-2-one] cannot be ordered by pIC50: < 4.70 for the first, < 4.52 for the second.

`CC(C)n1c(=O)n(C)c2cnc3ccc(-c4ccc(OCCCN(C)C)nc4)cc3c21` [Example 6, 8-[6-[3-(dimethylamino)propoxy]-3-pyridyl]-1-isopropyl-3-methyl-imidazo[4,5-c]quinolin-2-one] and `CC(C)n1c(=O)n(C)c2cnc3ccc(-c4ccc(OCCCN5CCCCC5)nc4F)cc3c21` [Example 9, 8-[2-Fluoro-6-[3-(1-piperidyl)propoxy]-3-pyridyl]-1-isopropyl-3-methyl-imidazo[4,5-c]quinolin-2-one] cannot be ordered by pIC50: < 5.51 for the first, < 5.28 for the second.

`CC(C)n1c(=O)n(C)c2cnc3cc(F)c(-c4ccc(OCCCN5CCC5)nc4F)cc3c21` [Example 16, 8-[6-[3-(azetidin-1-yl)propoxy]-2-fluoro-3-pyridyl]-7-fluoro-1-isopropyl-3-methyl-imidazo[4,5-c]quinolin-2-one] and `CC(C)n1c(=O)[nH]c2cnc3cc(F)c(-c4ccc(OCCCN5CCCCC5)nc4)cc3c21` [Example 18, 7-Fluoro-1-isopropyl-8-[6-[3-(1-piperidyl)propoxy]-3-pyridyl]-3H-imidazo[4,5-c]quinolin-2-one] cannot be ordered by pIC50: < 4.52 for the first, < 4.52 for the second.

same assay, conditions: pAKT Ser473, Protocol B (*); read-out: Assay d) mTOR Cell IC50

`CC(C)n1c(=O)n(C)c2cnc3cc(F)c(-c4ccc(OCCCN5CCCCC5)nc4)cc3c21` [Example 2, 7-Fluoro-1-isopropyl-3-methyl-8-[6-[3-(1-piperidyl)propoxy]-3-pyridyl]imidazo[4,5-c]quinolin-2-one] and `CC(C)n1c(=O)n(C)c2cnc3cc(F)c(-c4ccc(OCCCN5CCCCC5)nc4F)cc3c21` [Example 14, 7-fluoro-8-[2-fluoro-6-[3-(1-piperidyl)propoxy]-3-pyridyl]-1-isopropyl-3-methyl-imidazo[4,5-c]quinolin-2-one] cannot be ordered by pIC50: < 4.52 for the first, < 4.52 for the second.

Going from `CC(C)n1c(=O)n(C)c2cnc3ccc(-c4ccc(OCCCN5CCCC5)nc4)cc3c21` [Example 7, 1-isopropyl-3-methyl-8-[6-(3-pyrrolidin-1-ylpropoxy)-3-pyridyl]imidazo[4,5-c]quinolin-2-one] to `CC(C)n1c(=O)n(C)c2cnc3ccc(-c4ccc(OCCCN5CCC5)nc4)cc3c21` [Example 8, 8-[6-[3-(Azetidin-1-yl)propoxy]-3-pyridyl]-1-isopropyl-3-methyl-imidazo[4,5-c]quinolin-2-one], the pIC50 rises from 5.50 to 6.39 (0.89 log units). The second is the more potent here.

Going from `CC(C)n1c(=O)n(C)c2cnc3ccc(-c4ccc(OCCCN(C)C)nc4F)cc3c21` [Example 10, 8-[6-[3-(dimethylamino)propoxy]-2-fluoro-3-pyridyl]-1-isopropyl-3-methyl-imidazo[4,5-c]quinolin-2-one] to `CC(C)n1c(=O)n(C)c2cnc3ccc(-c4ccc(OCCCN5CCCC5)nc4F)cc3c21` [Example 12, 8-[2-fluoro-6-(3-pyrrolidin-1-ylpropoxy)-3-pyridyl]-1-isopropyl-3-methyl-imidazo[4,5-c]quinolin-2-one], the pIC50 falls from 5.46 to < 5.00. The first is the more potent here.

`CC(C)n1c(=O)n(C)c2cnc3cc(F)c(-c4ccc(OCCCN5CCCC5)nc4F)cc3c21` [Example 13, 7-fluoro-8-[2-fluoro-6-(3-pyrrolidin-1-ylpropoxy)-3-pyridyl]-1-isopropyl-3-methyl-imidazo[4,5-c]quinolin-2-one] and `CC(C)n1c(=O)n(C)c2cnc3cc(F)c(-c4ccc(OCCC[N+]5([O-])CCCCC5)nc4)cc3c21` [Metabolite A, 7-Fluoro-1-isopropyl-3-methyl-8-[6-[3-(1-oxidopiperidin-1-ium-1-yl)propoxy]-3-pyridyl]imidazo[4,5-c]quinolin-2-one] cannot be ordered by pIC50: < 4.52 for the first, < 4.52 for the second.
